Laboratory results taken from the supplement of paper PMC5908809.

How the values were obtained:
NK-YS (IL-2 2.5 ng/mL) [1] = assay: drug sensitivity score (DSS) (DSS units); higher = more sensitive; extreme values may be limits of the assay; details: 72 h
KHYG-1 (IL-2 2.5 ng/mL) [2] = assay: as above; details: 72 h
KAI3 (IL-2 2.5 ng/mL) [3] = assay: as above; details: 72 h
NKL (IL-2 2.5 ng/mL) [4] = assay: as above; details: 72 h
DERL-7 (IL-2 2.5 ng/mL) [5] = assay: as above; details: 72 h
SNK-6 (IL-2 2.5 ng/mL) [6] = assay: as above; details: 72 h
[7] = tested on: normal primary NK cells, pool 1 (3 donors), resting (IL-2 0 ng/mL); assay: as above; details: 72 h
[8] = tested on: normal primary NK cells, pool 1 (3 donors) (IL-2 2.5 ng/mL); assay: as above; details: 72 h
IMC-1 (IL-2 20 ng/mL) [9] = assay: as above; details: 72 h
NK-92 (IL-2 2.5 ng/mL) [10] = assay: as above; details: 72 h
[11] = tested on: normal primary NK cells, pool 2 (3 donors) (IL-2 2.5 ng/mL); assay: as above; details: 72 h
YT (IL-2 2.5 ng/mL) [12] = assay: as above; details: 72 h
[13] = tested on: normal primary NK cells, pool 3 (3 donors) (IL-2 2.5 ng/mL); assay: as above; details: 72 h
[14] = tested on: normal NK cells expanded with K562-aAPC; assay: percent inhibition of viability; higher = more inhibition; details: 72 h, IL-2 2.5 ng/mL
Protocol: (§1)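 Drug sensitivity and resistance testing on K562-aAPC-expanded normal NK cells: 5 concentrations (10-fold steps over a 10,000-fold range), 72 h at 37 °C, viability by CellTiter-Glo normalised to DMSO and benzethonium chloride controls; DSS from the fitted curve.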

NK-YS (IL-2 2.5 ng/mL) [15] = assay: as above; details: 72 h
KHYG-1 (IL-2 2.5 ng/mL) [16] = assay: as above; details: 72 h
KAI3 (IL-2 2.5 ng/mL) [17] = assay: as above; details: 72 h
NKL (IL-2 2.5 ng/mL) [18] = assay: as above; details: 72 h
DERL-7 (IL-2 2.5 ng/mL) [19] = assay: as above; details: 72 h
SNK-6 (IL-2 2.5 ng/mL) [20] = assay: as above; details: 72 h
[21] = tested on: normal primary NK cells, pool 1 (3 donors), resting (IL-2 0 ng/mL); assay: as above; details: 72 h
[22] = tested on: normal primary NK cells, pool 1 (3 donors) (IL-2 2.5 ng/mL); assay: as above; details: 72 h
IMC-1 (IL-2 20 ng/mL) [23] = assay: as above; details: 72 h
NK-92 (IL-2 2.5 ng/mL) [24] = assay: as above; details: 72 h
[25] = tested on: normal primary NK cells, pool 2 (3 donors) (IL-2 2.5 ng/mL); assay: as above; details: 72 h
YT (IL-2 2.5 ng/mL) [26] = assay: as above; details: 72 h
[27] = tested on: normal primary NK cells, pool 3 (3 donors) (IL-2 2.5 ng/mL); assay: as above; details: 72 h
[28] = tested on: normal NK cells expanded with K562-aAPC; assay: drug sensitivity score (DSS) (DSS units); higher = more sensitive; extreme values may be limits of the assay; details: 72 h; IL-2 2.5 ng/mL
Protocol: as §1

CN1CCN(c2nc(C3=C(c4c[nH]c5ccccc45)C(=O)NC3=O)c3ccccc3n2)CC1 [Sotrastaurin] (max concentration tested 10000 nM)
Details | drug sensitivity score
DERL-7 (IL-2 2.5 ng/mL) [5] | 9.93
IMC-1 (IL-2 20 ng/mL) [9] | 0.22
KAI3 (IL-2 2.5 ng/mL) [3] | 6.26
KHYG-1 (IL-2 2.5 ng/mL) [2] | 7.45
NK-92 (IL-2 2.5 ng/mL) [10] | 6.04
NK-YS (IL-2 2.5 ng/mL) [1] | 4.32
NKL (IL-2 2.5 ng/mL) [4] | 11.4
SNK-6 (IL-2 2.5 ng/mL) [6] | 2.08
YT (IL-2 2.5 ng/mL) [12] | 3.65
[7] | 0
[8] | 7.19
[11] | 3.66
[13] | 2.75
[28] | 5.13

percent inhibition of viability [%]
Details | 1 nM | 10 nM | 100 nM | 1000 nM | 10000 nM
DERL-7 (IL-2 2.5 ng/mL) [19] | -4.78 | -0.35 | 2.08 | 40.8 | 89
IMC-1 (IL-2 20 ng/mL) [23] | -5.62 | -0.79 | -3.9 | 0.37 | 14.4
KAI3 (IL-2 2.5 ng/mL) [17] | 1.68 | 5.93 | 0.83 | 15.7 | 68.5
KHYG-1 (IL-2 2.5 ng/mL) [16] | -1.7 | 2.28 | 1.66 | 16.2 | 86.7
NK-92 (IL-2 2.5 ng/mL) [24] | -7.26 | -8.85 | -22.3 | 14.4 | 67.9
NK-YS (IL-2 2.5 ng/mL) [15] | -6.15 | -1.7 | 5.97 | 11.9 | 48.6
NKL (IL-2 2.5 ng/mL) [18] | -0.06 | 2.68 | 21.7 | 45.5 | 80
SNK-6 (IL-2 2.5 ng/mL) [20] | -17.8 | -16.5 | -5.18 | -2.38 | 44.5
YT (IL-2 2.5 ng/mL) [26] | -2.44 | 0.13 | 0.38 | 16.3 | 34.6
[14] | -1.03 | -1.43 | 5.74 | 19.1 | 54.6
[21] | -32.7 | 2.96 | -3.23 | 9.18 | -53.6
[22] | -5.39 | 7.06 | 18.6 | 27.9 | 44.3
[25] | -13.5 | -3.77 | 5.41 | 15.2 | 41.4
[27] | -3.26 | -0.15 | 8.22 | 5.07 | 38.6

C[C@H](Nc1ncnc2nc[nH]c12)c1cc2cccc(Cl)c2c(=O)n1-c1ccccc1 [Duvelisib] (max concentration tested 500 nM)
Details | drug sensitivity score
DERL-7 (IL-2 2.5 ng/mL) [5] | 6.16
IMC-1 (IL-2 20 ng/mL) [9] | 0
KAI3 (IL-2 2.5 ng/mL) [3] | 1.4
KHYG-1 (IL-2 2.5 ng/mL) [2] | 0.45
NK-92 (IL-2 2.5 ng/mL) [10] | 7.08
NK-YS (IL-2 2.5 ng/mL) [1] | 0.07
NKL (IL-2 2.5 ng/mL) [4] | 3.86
SNK-6 (IL-2 2.5 ng/mL) [6] | 2.8
YT (IL-2 2.5 ng/mL) [12] | 0.15
[7] | 0
[8] | 0.83
[11] | 1.9
[13] | 0.66
[28] | 4.43

percent inhibition of viability [%]
Details | 0.05 nM | 0.5 nM | 5 nM | 50 nM | 500 nM
DERL-7 (IL-2 2.5 ng/mL) [19] | -0.14 | 9.15 | 10.2 | 25.2 | 56.5
IMC-1 (IL-2 20 ng/mL) [23] | 0.88 | -0.84 | -0.96 | -0.33 | 6.98
KAI3 (IL-2 2.5 ng/mL) [17] | -4.68 | 0.86 | 7.47 | 8.25 | 24.3
KHYG-1 (IL-2 2.5 ng/mL) [16] | 1.1 | 3.56 | 6.06 | 5.02 | 18.1
NK-92 (IL-2 2.5 ng/mL) [24] | -9.06 | -4.46 | 22.4 | 26.1 | 42.3
NK-YS (IL-2 2.5 ng/mL) [15] | -2.69 | -4.82 | 0.82 | -1.23 | 13
NKL (IL-2 2.5 ng/mL) [18] | -10.5 | 7.21 | 0.54 | 24.6 | 17.3
SNK-6 (IL-2 2.5 ng/mL) [20] | -0.58 | 4.35 | 2.29 | 9.46 | 32.8
YT (IL-2 2.5 ng/mL) [26] | 0.13 | 2.78 | 3.52 | 2.82 | 12.4
[14] | -2.59 | 4.75 | 5.15 | 19.8 | 45.7
[21] | 0.72 | -3.61 | 2.62 | -2.38 | 3.26
[22] | -0.52 | -4.76 | 3.49 | 6.72 | 18.7
[25] | -6.04 | 4.46 | 6.08 | 11.3 | 26.1
[27] | -13.6 | -1.02 | -2.45 | -0.85 | 21.8
